# Assay results published in patent US12458688B2, “Epitopes” (Scancell Limited, priority 2018, dated 2025).
# Key:
# HLA-DP4 (human) [1] = target: HLA-DP4 (human)
# HLA-DP4 (human) [2] = experiment: DP4 competition ELISA; competitor biotinylated Hep B peptide; 10 ug unlabelled against 10 ug biotinylated Hep B
# HLA-HHDII/DP4 mice = experiment: Ex vivo IFNγ ELISpot after peptide immunisation, HHDII/DP4 mice; type: in vivo, mouse
# Experimental: C57BL/6 mice (Charles River, UK), HLA-DR4 mice (Model #4149, Taconic, USA), HLA-A2/DR1 (HHDII/DR1, Pasteur Institute), HLA-A2.1+/+HLA-DP4+/+hCD4+/+ (HLA-HHDII/DP4) transgenic mice (EM: 02221, European Mouse Mutant Archive) described in patent WO2013/017545 A1 (EMMA repository, France) were used, aged between 8 and 12 weeks. Peptides were dissolved in PBS to 1 mg/ml and then emulsified (a series of dilutions) with CpG ODN 1826 and MPLA 6 μg/mouse of each (Invivogen, UK). Peptides (25 μg/mouse) were injected subcutaneously at the base of the tail. Mice were immunised at days 1, 7 and 14 for peptide immunisation. Spleens were removed for analysis at day 21 unless stated otherwise.
# ELISpot assays were performed using murine IFNγ, IL-17 and IL-10 capture and detection reagents according to the manufacturer's instructions (Mabtech, Sweden). In brief, anti-IFNγ, IL-17 and IL-10 specific antibodies were coated onto wells of 96-well Immobilin-P plate. Synthetic peptides (at various concentrations) and 5×10^5 per well splenocytes were added to wells of the plate in quadruplicate Tumour target cells were added where relevant at 5×10^4/well in triplicate and plates incubated for 40 hrs at 37° C. After incubation, captured IFNγ, IL-10 and IL-17 were detected by biotinylated anti-IFNγ, IL-10 and IL-17 antibodies and developed with a streptavidin alkaline phosphatase and chromogenic substrate. Lipopolysaccharide (LPS; 5 μg/ml) was used as a positive control. For MHC blocking studies, anti-CD4 blocking antibody (GK1.5) or anti-CD4 blocking antibody (RPA-T4) for HHDII/DP4 mice which express human CD4 and anti-CD8 blocking antibody (2.43) from Bioxcell were used at 20 μg/ml. Spots were analysed and counted using an automated plate reader (Cellular Technologies Ltd).
# Screening was performed to identify potential homocitrullinated ALDOA epitopes in transgenic HHDII/DP4 and HHDII/DR1 mice. Mice were immunised with pools of human homocitrullinated peptides. […] Each pool was administered as three immunisations containing 20 μg of each peptide and CpG/MPLA as an adjuvant. After 21 days the mice were culled and the immune responses to each peptide within the immunising pool were assessed by ex vivo ELISpot in HHDII/DP4 (FIG. 4b) and HHDII/DR1 mice (FIG. 4d). […] Our predictions therefore identified 3/5 peptides which could induce a T cell response. […] Of the responding peptides ALDOA 74-93 Hcit and 140-157 Hcit peptides are homologous in human and mice therefore these two peptides were selected for further investigation. Minimal IL-10 (FIG. 6b) or IL-17 (FIG. 6c) responses were seen to Aldolase peptides in HHDII/DP4 mice.
# Using this combination of predictions, 5 CyK8 peptides containing homocitrulline were synthesised (Table 4). Screening was performed to identify potential homocitrullinated Cyk8 epitopes in transgenic HHDII/DP4. Mice were immunised with pools of human homocitrullinated peptides. […] Each pool was administered as three immunisations containing 20 μg of each peptide and CpG/MPLA as an adjuvant. After 21 days the mice were culled and the immune responses to each peptide within the immunising pool were assessed by ex vivo ELISpot in HHDII/DP4 (FIG. 10a). […] The responses to CyK8 101-120 Hcit, 112-131 Hcit, 182-201 Hcit, 371-388 Hcit and 381-399 Hcit immunisation were characterised for cross reactivity to the wt peptide sequence. […] Thus a key characteristic of immunogenic peptides is they express homocitrulline. All of these peptides (100%) were immunogenic. Thus a high predicted HLA-DP4 binding affinity (<30), the presence of homocitrulline residues in the core region, the peptide being amphipathic in nature with a predominantely spiral conformational structure upon 3D modelling, and the existence of homology between the mouse and human sequences defines immunogenicity. When this model was applied retrospectively to include the vimentin and ALDOA peptides 8/9 (88%) were correctly predicted. […]
# [3] = system: B16HHDII/iDP4 tumour cells; experiment: Tumour therapy, B16HHDII/iDP4 tumour in HHDII/DP4 mice; type: in vivo, mouse; settings: peptide with CpG/MPLA
# Experimental: For tumour challenge experiments, mice were challenged with B16F1 cells s.c. on the right flank 3 days before primary immunisation (unless stated otherwise) and subsequently immunised as above. Tumour implants were carried out at dose of 2.5×10^4 cells/mouse for B16F1, 2.5×10^4 cells/mouse for B16F1 DR4, 4×10^5 cells/mouse for B16F1 HHDII/DP4, 5×10^5 cells/mouse for B16 HHDII/DR1, 1×10^5 cells/mouse for B16F1 HHDII/inducibleDP4, 5×10^4 cells/mouse for B16F1 inducible DR4. For studies involving depletion antibodies, 250 μg anti-mouse Ly6C antibody (clone Monts, BioXcell) was administered i.p. on days 8, 10, 12, 15, 17 and 19. 400 μg anti-mouse Ly6G antibody (clone 1A8, Biolegend) was administered i.p. on day 8 followed by 250 μg on days 11, 15 and 18. Anti-human CD4 antibody (clone OKT4, BioXcell) or anti-mouse CD8 antibody (clone 2.43, BioXcell) were administered at 500 μg dose on day 4 followed by 300 μg dose on days 8 and 11. Tumour growth was monitored twice weekly and mice were humanely euthanised once tumour reached ≥15 mm in diameter.
# To provide further evidence for the role of CD4 T cell responses in tumour therapy HHDII/DP4 mice were implanted with B16HHDII/iDP4 tumour cells on day 1 and then immunised with peptides and CpG/MPLA on days 4, 8 and 11. Concurrent with peptide immunisation mice were also treated with CD4 or CD8 depleting antibody and tumour growth monitored. […] To show whether cyanate/isocyanic acid can cross cell membranes B16F1 melanoma cell line was cultured in vitro in the presence or absence of potassium cyanate which is in dynamic equilibrium with isocyanic acid. As a positive control lysates were also produced from in vitro cultured B16F1 cells and then treated with or without KCNO.
# Chain of HLA-DP4 (human) (P20036 29-260, chain 1 of 2): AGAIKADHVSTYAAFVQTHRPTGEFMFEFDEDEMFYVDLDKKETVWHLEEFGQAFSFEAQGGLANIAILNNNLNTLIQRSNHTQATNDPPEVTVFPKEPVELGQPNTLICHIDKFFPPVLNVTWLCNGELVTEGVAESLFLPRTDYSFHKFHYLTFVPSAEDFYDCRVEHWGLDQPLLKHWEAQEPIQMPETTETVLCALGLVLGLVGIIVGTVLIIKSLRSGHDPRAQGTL
# Chain of HLA-DP4 (human) (P04440 30-258, chain 2 of 2, further chain): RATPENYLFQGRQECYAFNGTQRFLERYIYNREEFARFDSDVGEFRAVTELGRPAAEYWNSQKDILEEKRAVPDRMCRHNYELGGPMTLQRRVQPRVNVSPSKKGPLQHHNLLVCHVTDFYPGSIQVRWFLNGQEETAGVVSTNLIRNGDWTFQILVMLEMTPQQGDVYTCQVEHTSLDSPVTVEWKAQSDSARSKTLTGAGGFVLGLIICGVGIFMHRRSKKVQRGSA
substance,measurement,setting,value
Biotinylated Hep B 181-192 peptide,OD,HLA-DP4 (human) [1],0.85 OD (450 nm)
Hep B 181-192 peptide (unlabelled),% inhibition,HLA-DP4 (human) [2],47%
RNELESYAYSL-Hcit-NQIGD-Hcit- [BiP 562-579 Hcit],cross reactivity of Hcit response to wt peptide,HLA-HHDII/DP4 mice,significantly higher
same,IFNγ ELISpot response,"HLA-HHDII/DP4 mice; 3 immunisations with CpG/MPLA, day 21",stimulation of IFNγ responses
same,IFNγ response in presence of CD4 blocking antibody,HLA-HHDII/DP4 mice; splenocytes after 7 days culture,loss of response
same,tumour growth / survival vs control,[3],Significant prevention of tumour growth
